Experiments:
[1] = biological target: T1, Deoxyhypusine synthase (BmDHS) (Brugia malayi, UniProt A0A0J9XTC4); assay: NADH fluorescence assay of DHS partial reaction with purified recombinant enzyme; assay type: biochemical
T1 construct: gene bma-dhps-1; full-length, recombinant BmDHS (residues 1–366)
T1 sequence (A0A0J9XTC4 1-366): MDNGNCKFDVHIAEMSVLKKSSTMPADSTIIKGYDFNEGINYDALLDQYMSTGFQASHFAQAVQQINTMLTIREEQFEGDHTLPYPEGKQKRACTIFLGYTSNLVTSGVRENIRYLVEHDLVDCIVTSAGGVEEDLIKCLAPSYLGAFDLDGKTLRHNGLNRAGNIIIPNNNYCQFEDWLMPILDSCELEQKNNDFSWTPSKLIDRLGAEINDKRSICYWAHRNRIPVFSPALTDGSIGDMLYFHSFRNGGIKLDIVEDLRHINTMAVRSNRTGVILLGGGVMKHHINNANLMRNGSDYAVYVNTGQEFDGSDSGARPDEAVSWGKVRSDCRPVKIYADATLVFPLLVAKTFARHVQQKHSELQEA

[2] = biological target: the molecule itself; assay: SEC; analytical gel filtration, Superdex 200 Increase 10/300, 900 ug purified BmDHS; 20 mM HEPES pH 7.5, 300 mM NaCl, 5% glycerol, 0.5 mM TCEP; calibrated with protein standards (Kav against log mass)

Row | Molecule | IC50 [1] [nM] | stoichiometry N [2]
1 | N=C(N)NCCCCCCCN [GC7] | 28 | 
2 | Brugia malayi deoxyhypusine synthase (BmDHS), full-length recombinant protein (enzyme, additional N-terminal serine residue introduced by the cloning strategy and left over after TEV cleavage of the poly-His tag; Deoxyhypusine synthase of Brugia malayi, encoded by bma-DHPS-1, full-length enzyme, residues 1-366; Expressed from pNIC28-Bsa4; Molecular weight by LC-MS 41,083.5 Da; also called B. malayi (Bm)DHS; filarial worm DHS; source: E. coli BL21(DE3)-R3-pRARE2, purified (HisTrap …)) SMDNGNCKFDVHIAEMSVLKKSSTMPADSTIIKGYDFNEGINYDALLDQYMSTGFQASHFAQAVQQINTMLTIREEQFEGDHTLPYPEGKQKRACTIFLGYTSNLVTSGVRENIRYLVEHDLVDCIVTSAGGVEEDLIKCLAPSYLGAFDLDGKTLRHNGLNRAGNIIIPNNNYCQFEDWLMPILDSCELEQKNNDFSWTPSKLIDRLGAEINDKRSICYWAHRNRIPVFSPALTDGSIGDMLYFHSFRNGGIKLDIVEDLRHINTMAVRSNRTGVILLGGGVMKHHINNANLMRNGSDYAVYVNTGQEFDGSDSGARPDEAVSWGKVRSDCRPVKIYADATLVFPLLVAKTFARHVQQKHSELQEA |  | 4

Source: paper PMC7581365, “Structural features and development of an assay platform of the parasite target deoxyhypusine synthase of Brugia malayi and Leishmania major” (PLoS Neglected Tropical Diseases, 2020)
